In ChEMBL document CHEMBL1149621, “The synthesis of 18beta-glycyrrhetinic acid derivatives which have increased antiproliferative and apoptotic effects in leukemia cells” (2007):
Activity calls are given as the source filed them. The rule behind the calls is not given here.

What was measured:
HL-60 [1] = test: Antiproliferative activity against human HL60 cells after 72 hrs; type: functional; details: HL-60, 72 h
HL-60 [2] = test: Induction of apoptosis in human HL60 cells at 80 uM after 6 hrs by fluorescence microscopy; type: functional
HL-60 [3] = test: Induction of apoptosis in human HL60 cells assessed as accumulation of cells in subG1 phase at 80 uM after 6 hrs by FACS method; type: functional
HL-60 [4] = test: Induction of apoptosis in human HL60 cells assessed as DNA fragmentation at 80 uM after 6 hrs; type: functional, cell-based

| SMILES | GI50 (HL-60 [1]) [µM] | Activity (HL-60 [2]) [%] | Activity (HL-60 [3]) [%] | Activity (HL-60 [4]) |
| --- | --- | --- | --- | --- |
| CC1(C)C(=O)CC[C@]2(C)C3C(=O)C=C4[C@@H]5C[C@](C)(C(=O)O)CC[C@]5(C)CC[C@@]4(C)[C@]3(C)CC[C@@H]12 (stereo partly drawn) | 59.6 | 28.5 | – | – |
| CC1(C)[C@@H](O)CC[C@]2(C)C3C(=O)C=C4[C@@H]5C[C@](C)(C(=O)O)CC[C@]5(C)CC[C@@]4(C)[C@]3(C)CC[C@@H]12 (stereo partly drawn) | 63.2 | 24.9 | 12.7 | inactive |
| CCCO/N=C1\CC[C@]2(C)C3C(=O)C=C4[C@@H]5C[C@](C)(C(=O)O)CC[C@]5(C)CC[C@@]4(C)[C@]3(C)CC[C@H]2C1(C)C (stereo partly drawn) | 20.6 | 87.3 | 80.3 | Active |
| CCCO/N=C1\CC[C@]2(C)C3C(=O)C=C4[C@@H]5C[C@](C)(C(=O)OC)CC[C@]5(C)CC[C@@]4(C)[C@]3(C)CC[C@H]2C1(C)C (stereo partly drawn) | 19 | 4.9 | – | – |
| CCO/N=C1\CC[C@]2(C)C3C(=O)C=C4[C@@H]5C[C@](C)(C(=O)OC)CC[C@]5(C)CC[C@@]4(C)[C@]3(C)CC[C@H]2C1(C)C (stereo partly drawn) | 19.1 | 8.6 | – | – |
| CCC(=O)O/N=C1\CC[C@]2(C)C3C(=O)C=C4[C@@H]5C[C@](C)(C(=O)O)CC[C@]5(C)CC[C@@]4(C)[C@]3(C)CC[C@H]2C1(C)C (stereo partly drawn) | 57.7 | 27.7 | – | – |

Second part, led by results:

| GI50 (HL-60 [1]) [µM] | SMILES | Activity (HL-60 [2]) [%] | Activity (HL-60 [3]) [%] | Activity (HL-60 [4]) |
| --- | --- | --- | --- | --- |
| 36.1 | CO/N=C1\CC[C@]2(C)C3C(=O)C=C4[C@@H]5C[C@](C)(C(=O)O)CC[C@]5(C)CC[C@@]4(C)[C@]3(C)CC[C@H]2C1(C)C (stereo partly drawn) | 60.2 | 70.9 | Active |
| 58.8 | CC(=O)O/N=C1\CC[C@]2(C)C3C(=O)C=C4[C@@H]5C[C@](C)(C(=O)O)CC[C@]5(C)CC[C@@]4(C)[C@]3(C)CC[C@H]2C1(C)C (stereo partly drawn) | 19.1 | – | – |
| 24.4 | CCO/N=C1\CC[C@]2(C)C3C(=O)C=C4[C@@H]5C[C@](C)(C(=O)O)CC[C@]5(C)CC[C@@]4(C)[C@]3(C)CC[C@H]2C1(C)C (stereo partly drawn) | 59.7 | 68.7 | Active |
| 63 | CC1(C)/C(=N/O)CC[C@]2(C)C3C(=O)C=C4[C@@H]5C[C@](C)(C(=O)O)CC[C@]5(C)CC[C@@]4(C)[C@]3(C)CC[C@@H]12 (stereo partly drawn) | 24.5 | – | – |
